Reference: BindingDB's records for patent US20240132503 (Ocumension Therapeutics (Suzhou) Co., 2024)

Molecular target: Tyrosine-protein kinase SYK (Homo sapiens, UniProt P43405)
Assay: In Vitro Evaluation of Inhibitory Activity Against Syk Protein Kinase
Experimental: Test Procedure and Method:(a) Compound dilution and microplate injection1) Compound powder was weighed and dissolved in a specific amount of DMSO at an initial concentration of 10 mM.2) The compound was diluted to have a concentration of 0.74 mM, POD18 was used for microplate injection by 135 nL per well, an initial concentration of the compound was 10 μM, and 11 concentrations and 3-fold descending serial dilution were carried out.(b) Reaction stage of enzyme and substrate1) Preparation of test buffer dilution: 5×HTRF buffer in the kit was diluted to 1×HTRF buffer, and a specified amount of DTT and MgCl2 solution were added for later use.2) A Syk enzyme reaction solution was prepared with 1×HTRF buffer, so that a final reaction concentration of Syk kinase was 0.0156 ng/μL.3) A TK-Substrate-biotin/ATP mixture was prepared, so that a final substrate concentration was controlled to be 0.2 μM. An ATP concentration was controlled to be 2 μM.4) A mutidorp injector was used to add the sample, 5 μL of Syk enzyme solution and TK-Substrate-biotin/ATP mixture were added to each well, and incubated at 23° C. for 1 hour.

## c1cc(N2CCOCC2)ccc1NC1=Nc2ccc(-c3cn[nH]c3)cc2N2CCN=C12 [US20240132503, Compound Crystal form A Compound Formula 1]
  IC50: 25 nM
